The EC50 is the concentration at which the effect is half-maximal.

In test [1] the test system is HBV. As to the kind of experiment: Antiviral Activity Against HBV Replication (HBV DNA, HepG2.117 cell line). The format is cell-based. Particulars: Hepatitis B virus, 72 h; HepG2.117 cells, 3 days, HBV DNA by realtime PCR. How it is done: The anti-HBV activity was measured using the HepG2.117 cell line, a stable, inducibly HBV producing cell line (SUN D., et al., “Stable HepG2- and Huh7-based human hepatoma cell lines for efficient regulated expression of infectious hepatitis B virus”, J. of Hepatology, 2006, pp 636-645, Vol. 45) which replicates HBV in the absence of doxycycline (Tet-off system). For the antiviral assay, HBV replication was induced, followed by a treatment with serially diluted compound in 96-well plates in duplicate. After 3 days of treatment, the antiviral activity was determined by quantification of intracellular or extracellular HBV DNA using realtime PCR and an HBV specific primer set and probe. Cytotoxicity of the test compounds was tested using HepG2 cells, incubated for 4 days in the presence of test compounds. The viability of the cells was assessed using a Resazurin assay. The CC50 was defined as the 50% concentration for cytotoxicity

Test [2] deals with HCV 1b bicistronic subgenomic luciferase reporter replicon clone ET. As to the kind of experiment: Antiviral Activity Against HCV (replicon cells, luciferase read-out). Particulars: Hepatitis C virus, 72 h; HCV 1b replicon clone ET, 3-day incubation, firefly luciferase read-out. The format is cell-based. The protocol:
The anti-HCV activity of compounds was tested in cell culture with replicon cells generated using reagents from the Bartenschlager laboratory (the HCV 1b bicistronic subgenomic luciferase reporter replicon clone ET). The protocol included a 3-day incubation of 2500 replicon cells in a 384-well format in a nine-point 1:4 dilution series of the compound. Dose response curves were generated based on the firefly luciferase read-out.
On the technique in general: In antiviral work, replicon cells carry a viral genome segment that copies itself.

Take `Cc1ccc(C(=O)N2CCC(c3ccc(-c4cnn(C)c4)cc3)CC2)cc1NC(=O)c1ccc(NC(C)C)nc1` [Compound #32, 6-(isopropylamino)-N-(2-methyl-5-(4-(4-(1-methyl-1H-pyrazol-4-yl)phenyl)piperidine-1-carbonyl)phenyl)nicotinamide]: the EC50 was more than 5 µM in test [1] and 14.6 nM in test [2].

(Values after US9562035B2, “Benzamide derivative useful as FASN inhibitors for the treatment of cancer” (Janssen Pharmaceutica NV, priority 2013, dated 2017).)
